This is an account of results in US4256642A, “Pharmaceutically active 2,9-dioxatricyclo[4,3,1,0^3,7 ] decanes” (Kali-Chemie Pharma GmbH, priority 1975, dated 1981).

The subject of data set [1] is Mouse. Kind of data set: Lowered rectal temp. p.o. (Mouse). The settings on record: po. It counts as in vivo. On the procedure: (§1) The in vivo activity of representative compounds of the present invention was determined as set forth in Table I below by administration to mice in pharmaceutically effective amounts.
Lowered rectal temp. ED50 p.o.(*)

Data set [2] can be described thus: Acute toxicity LD50 i.p. (Mouse). Conditions: in vivo, ip. On the procedure:
as §1

The test system of data set [3] is Mouse. Kind of data set: Analgesia, Phenylbenzoquinone test (Writing), p.o. (Mouse). It counts as in vivo. The settings on record: for ED50: po, Phenylbenzoquinone test; for Analgesia relative to Propoxyphene: footnote (b) to analgesia ED50 p.o. Here is the method: as §1
Analgesia ED50 p.o.(a)(*)
(a) Phenylbenzoquinone test (Writing

The ED50 is the midpoint of the dose-response relation. By LD50 is commonly meant the dose at which mortality reaches 50%. A low value points to a more toxic substance. Take `COC1O[C@H]2O[C@]3(C)[C@@H](O)C[C@H]([C@H]2C)[C@H]13` (some centres unmarked) [compound 1246]: the ED50 in data set [1] was found to be 100 mg/kg; in data set [3], 68 mg/kg. Besides, in data set [2], the LD50 was > 800 mg/kg.

In data set [1], `C[C@@H]1[C@H]2OC[C@H]3[C@@H]1CC(=O)[C@@]3(C)O2` [compound 2619] showed an ED50 of 25 mg/kg. The same compound showed an LD50 in data set [2] of 1600 mg/kg. Moreover, in data set [3], the “Analgesia relative to Propoxyphene” value is recorded as “≥ Propoxyphene” and the ED50 is < 10 mg/kg.

With `CNC(=O)O[C@@H]1C[C@@H]2[C@H](C)[C@H]3OC[C@@H]2[C@]1(C)O3` [compound 2648], the ED50 is < 100 mg/kg in data set [1] and < 10 mg/kg in data set [3]. The same compound displayed an LD50 in data set [2] of 800 mg/kg.

On to `COC1O[C@H]2O[C@]3(C)[C@H](O)C[C@H]([C@H]2C)[C@H]13` (some centres unmarked) [compound 1561], for which the ED50 in data set [1] and in data set [3] was 100 mg/kg each time. In addition, in data set [2], the LD50 was > 800 mg/kg.

Compound `C[C@@H]1[C@H]2OC[C@H]3[C@@H]1C[C@@H](O)[C@@]3(C)O2` [compound 2455] returned an ED50 in data set [1] of 10 mg/kg. The LD50 in data set [2] amounted to 406 mg/kg. Moreover, in data set [3], the “Analgesia relative to Propoxyphene” value was “≥ Propoxyphene” and the ED50 is < 10 mg/kg.

On to `CC(=O)O[C@H]1C[C@@H]2[C@H](C)[C@H]3OC[C@@H]2[C@]1(C)O3` [compound 2614], for which the ED50 in data set [1] was 100 mg/kg; in data set [3], < 50 mg/kg. This compound displayed an LD50 in data set [2] of 822 mg/kg.

`C[C@@H]1[C@H]2OC[C@H]3[C@@H]1C[C@H](O)[C@@]3(C)O2` [compound 2422]: the ED50 in data set [1] was 400 mg/kg; in data set [3], < 50 mg/kg. Besides, in data set [2], the LD50 worked out at 920 mg/kg.

With `CNC(=O)O[C@H]1C[C@@H]2[C@H](C)[C@H]3OC[C@@H]2[C@]1(C)O3` [compound 2624], the results for the ED50 in data set [1] and in data set [3] were 32 mg/kg and < 50 mg/kg, respectively. In addition, the LD50 in data set [2] was found to be 739 mg/kg.
